The values that follow come from patent publication US11124489B2, “EPAC antagonists” (priority 2017, dated 2021).

Assay [1] concerns the target T1, EPAC1 (Homo sapiens (Human), UniProt O95398). The assay is described as follows: biochemical.
Assay [2] addresses T1, EPAC1.
Assay [3] concerns the target T2, EPAC2 (Mus musculus (Mouse), UniProt Q9EQZ6). As to conditions: for Relative GEF activity, EPAC2-mediated Rap1b-bGDP exchange: in the presence of 20 μM cAMP, figure.
Protocol: (§1) In Vitro Evaluation of EPAC2 Inhibition.
(§2) In vitro EPAC GEF activity was acquired as previously described (Zhu et al., Sci. Rep. (2015) 5:9344). Briefly, the assay was performed using 500 nM Rap1b-BODIPY-GDP and 200 nM EPAC proteins in buffer containing 50 mM Tris-HCl pH 7.5, 50 mM NaCl, 5 mM MgCl2, 1 mM DTT, 50 mM GDP and the indicated concentrations of test compounds at room temperature using half-area 96-well plates (Corning Costar 3915). The exchange reaction was monitored using a Spectramax M2 Plate Reader (Molecular Devices) with the excitation/emission wavelengths set at 485/515 nm. The reaction rate constant (kobs) was determined by globally fitting the experimental data to a single exponential equation.
The target of assay [4] is T2, EPAC2. The assay is described as follows: biochemical. The note with it: Rap1b-bGDP EPAC2 IC50, apparent IC50, EPAC2 GEF activity, 20 μM cAMP.
Protocol: as §1, §2
[5] abbreviates: Rap 1b-bGDP EPAC1 IC50, apparent IC50, EPAC1 GEF activity, 20 μM cAMP.
[6] abbreviates: apparent IC50, EPAC1 GEF activity, 20 μM cAMP.

Read-outs that look alike come from different tables or passages of the source. A value given as a limit tells only on which side of the number the result lay.

In general, IC50 refers to the concentration at which inhibition is half-maximal. For the compound `CC(C)(C)c1ccc(-c2cc(C(=O)C(C#N)=NNc3cccc(Cl)c3)no2)cc1` [Compound 7, N-(3-Chlorophenyl)-2-(5-(4-(tert-butyl)phenyl)isoxazol-3-yl)-2-oxoacetohydrazonoyl cyanide], the half-maximal inhibitory concentration (IC50) in assay [1] (Rap 1b-bGDP EPAC1 IC50) was 8.6 µM.
With `CC(C)(C)c1ccc(-c2cc(C(=O)C(C#N)=NNc3ccc(C(F)(F)F)c(Cl)c3)no2)cc1` [Compound 9, N-(3-Chloro-4-(trifluoromethyl)phenyl)-2-oxo-2-(5-(4-(tert-butyl)phenyl)isoxazol-3-yl)acetohydrazonoyl cyanide], in assay [1] (setting [5]), the IC50 is 9 ± 3.9 µM.
Take `CC(C)(C)c1ccc(-c2cc(C(=O)C(C#N)=NNc3ccc(Cl)c(C(F)(F)F)c3)no2)cc1` [Compound 10, N-(4-Chloro-3-(trifluoromethyl)phenyl)-2-oxo-2-(5-(4-(tert-butyl)phenyl)isoxazol-3-yl)acetohydrazonoyl cyanide]: the “Rap 1b-bGDP EPAC1 IC50” value in assay [2] (setting [6]) is on record as “low micromolar range”. In addition, the “Relative GEF activity, EPAC2-mediated Rap1b-bGDP exchange” value in assay [3] is “Dose-dependent inhibition”. The 50% inhibitory concentration (IC50) in assay [1] (setting [5]) was 7.3 µM; in assay [4] it was 2.2 ± 0.3 µM.
Regarding `CC(C)(C)c1ccc(-c2cc(C(=O)C(C#N)=NNc3cc(C(F)(F)F)cc(C(F)(F)F)c3)no2)cc1` [Compound 11, N-(3,5-Bis(trifluoromethyl)phenyl)-2-(5-(4-(tert-butyl)phenyl)isoxazol-3-yl)-2-oxoacetohydrazonoyl cyanide], in assay [1] (setting [5]), the IC50 came to 11.9 ± 6 µM.
In assay [1] (Rap 1b-bGDP EPAC1 IC50), `N#CC(=NNc1cc(Cl)cc(C(F)(F)F)c1)C(=O)c1cc(-c2ccccc2)on1` [Compound 13, N′-(3-Chloro-5-(trifluoromethyl)phenyl)-2-oxo-2-(5-phenylisoxazol-3 yl)acetohydrazonoyl cyanide] gave an IC50 of 9.5 ± 1.2 µM.
Regarding `N#CC(=NNc1ccc(Cl)c(C(F)(F)F)c1)C(=O)c1cc(-c2ccccc2)on1` [Compound 14, N-(3-Trifluromethyl-4-chlorophenyl)-2-oxo-2-(5-phenylisoxazol-3-yl)acetohydrazonoyl cyanide], the IC50 in assay [3] (read-out: Rap1b-bGDP EPAC2 IC50, apparent IC50, EPAC2 GEF activity, 20 μM cAMP) came out at […].
As to `N#CC(=NNc1cc(C(F)(F)F)cc(C(F)(F)F)c1)C(=O)c1cc(-c2ccccc2)on1` [Compound 15, N-(3,5-Bis(trifluoromethyl)phenyl)-2-oxo-2-(5-phenylisoxazol-3-yl)acetohydrazonoyl cyanide], the results for the concentration for half-maximal inhibition (IC50) in assay [1] (Rap 1b-bGDP EPAC1 IC50) and in assay [4] were 7.2 ± 0.7 µM and 3.3 ± 0.8 µM, respectively.
Regarding `N#CC(NNc1ccc(C(F)(F)F)c(Cl)c1)C(=O)c1cc(-c2ccccc2)on1` (stereo not drawn) [Compound 17b], the “Rap 1b-bGDP EPAC1 IC50” value in assay [2] is reported as “low micromolar range”. The half-inhibitory concentration (IC50) in assay [2] (read-out: Rap 1b-bGDP EPAC1 IC50) was 5.1 ± 0.3 µM.
Consider `N#CC(=NNc1ccc(Cl)c(C(F)(F)F)c1)C(=O)c1cc(-c2ccc(Cl)cc2)on1` [Compound 20, N-(4-Chloro-3-(trifluoromethyl)phenyl)-2-oxo-2-(5-(4-chlorophenyl)isoxazol-3-yl)acetohydrazonoyl cyanide], for which the concentration for half-maximal inhibition (IC50) in assay [1] (Rap 1b-bGDP EPAC1 IC50) was determined as 7.8 ± 2.1 µM.
In the case of `COc1ccc(-c2cc(C(=O)C(C#N)=NNc3cccc(Cl)c3)no2)cc1` [Compound 22, N-(3-Chlorophenyl)-2-(5-(4-methoxyphenyl)isoxazol-3-yl)-2-oxoacetohydrazonoyl cyanide], the “Relative GEF activity, EPAC1-mediated Rap1b-bGDP exchange” value in assay [2] is listed as “Dose-dependent inhibition”. The compound further gave an IC50 in assay [1] (Rap 1b-bGDP EPAC1 IC50) of 11.4 ± 2.8 µM.
With `COc1ccc(-c2cc(C(=O)C(C#N)=NNc3ccc(Cl)c(C(F)(F)F)c3)no2)cc1` [Compound 23, N-(4-Chloro-3-(trifluoromethyl)phenyl)-2-oxo-2-(5-(4-methoxyphenyl)isoxazol-3-yl)acetohydrazonoyl cyanide], the IC50 is below 8 µM in assay [1] (setting [5]) and 4.5 ± 1 µM in assay [4].
Take `N#CC(=NNc1cc(Cl)cc(C(F)(F)F)c1)C(=O)c1cc(-c2ccco2)on1` [Compound 26, N-(3-Chloro-5-(trifluoromethyl)phenyl)-2-(5-(furan-2-yl)isoxazol-3-yl)-2-oxoacetohydrazonoyl cyanide]: in assay [2], the “Rap 1b-bGDP EPAC1 IC50” value is given as “low micromolar range” and the “Relative GEF activity, EPAC1-mediated Rap1b-bGDP exchange” value is “Dose-dependent inhibition”. The half-maximal inhibitory concentration (IC50) in assay [1] (Rap 1b-bGDP EPAC1 IC50) stood at 3.6 ± 0.2 µM. Moreover, in assay [4], the 50% inhibitory concentration (IC50) stood at 2.2 ± 0.3 µM.
For `N#CC(=NNc1ccc(Cl)c(C(F)(F)F)c1)C(=O)c1cc(-c2ccco2)on1` [Compound 27, N-(4-Chloro-3-(trifluoromethyl)phenyl)-2-(5-(furan-2-yl)isoxazol-3-yl)-2-oxoacetohydrazonoyl cyanide], the “Relative GEF activity, EPAC2-mediated Rap1b-bGDP exchange” value in assay [3] was “Dose-dependent inhibition”. In addition, the values for the IC50 in assay [1] (setting [5]) and in assay [4] were 4.2 ± 0.9 µM and 2.3 ± 0.2 µM, respectively.
In assay [1] (Rap 1b-bGDP EPAC1 IC50), `N#CC(=NNc1cccc(Cl)c1)C(=O)c1noc2ccccc12` [Compound 30, 2-(Benzo[d]isoxazol-3-yl)-N-(3-chlorophenyl)-2-oxoacetohydrazonoyl cyanide] showed an IC50 of 13.2 µM.
On to `N#CC(=NNc1cc(Cl)cc(C(F)(F)F)c1)C(=O)c1noc2ccccc12` [Compound 31, 2-(Benzo[d]isoxazol-3-yl)-N-(3-chloro-5-(trifluoromethyl)phenyl)-2-oxoacetohydrazonoyl cyanide], for which the IC50 in assay [1] (setting [5]) was determined as 4.6 ± 0.8 µM; in assay [4], 2.2 ± 0.2 µM.
Take `N#CC(=NNc1ccc(C(F)(F)F)c(Cl)c1)C(=O)c1noc2ccccc12` [Compound 32, 2-(Benzo[d]isoxazol-3-yl)-N-(3-chloro-4-(trifluoromethyl)phenyl)-2-oxoacetohydrazonoyl cyanide]: the “Rap 1b-bGDP EPAC1 IC50” value in assay [2] (setting [6]) is reported as “low micromolar range”. Moreover, the IC50 in assay [1] (setting [5]) was 3 ± 0.3 µM; in assay [4] it was 2.2 ± 0.4 µM.
Consider `N#CC(=NNc1ccc(Cl)c(C(F)(F)F)c1)C(=O)c1noc2ccccc12` [Compound 33, 2-(Benzo[d]isoxazol-3-yl)-N-(4-chloro-3-(trifluoromethyl)phenyl)-2-oxoacetohydrazonoyl cyanide], for which the “Rap 1b-bGDP EPAC1 IC50” value in assay [2] (setting [6]) is reported as “low micromolar range”. Further, the “Relative GEF activity, EPAC1-mediated Rap1b-bGDP exchange” value in assay [2] (in the presence of 20 μM cAMP, figure) is on record as “Dose-dependent inhibition”. In assay [3], the “Relative GEF activity, EPAC2-mediated Rap1b-bGDP exchange” value is recorded as “Dose-dependent inhibition”. Besides, the IC50 turned out to be 2.7 ± 0.3 µM in assay [1] (setting [5]) and 1.9 µM in assay [4].
`N#CC(=NNc1cc(F)cc(Cl)c1)C(=O)c1noc2ccccc12` [Compound 34, 2-(Benzo[d]isoxazol-3-yl)-N-(3-chloro-5-fluorophenyl)-2-oxoacetohydrazonoyl cyanide] gave an IC50 in assay [1] (Rap 1b-bGDP EPAC1 IC50) of 18.9 ± 4.9 µM.
In the case of `N#CC(=NNc1ccc(F)c(Cl)c1)C(=O)c1noc2ccccc12` [Compound 35, 2-(Benzo[d]isoxazol-3-yl)-N-(3-chloro-4-fluorophenyl)-2-oxoacetohydrazonoyl cyanide], the IC50 in assay [1] (Rap 1b-bGDP EPAC1 IC50) amounted to 8.5 ± 3.5 µM.
Regarding `N#CC(=NNc1cc(C(F)(F)F)cc(C(F)(F)F)c1)C(=O)c1noc2ccccc12` [Compound 36, 2-(Benzo[d]isoxazol-3-yl)-N-(3,5-bis(trifluoromethyl)phenyl)-2-oxoacetohydrazonoyl cyanide], the half-maximal inhibitory concentration (IC50) in assay [1] (setting [5]) came to 6.7 ± 0.7 µM.
On the same count and under the same terms, for `N#C/C(=N\Nc1cc(Cl)cc(Cl)c1)C(=O)c1ccc(Cl)cc1` [ZL0491, (E)-2-(4-chlorophenyl)-N-(3,5-dichlorophenyl)-2-oxoacetohydrazonoyl cyanide] the value was above 300 µM; for `N#C/C(=N\Nc1cc(Cl)cc(Cl)c1)C(=O)c1cccc(Cl)c1` [ZL0546, (E)-2-(3-chlorophenyl)-N-(3,5-dichlorophenyl)-2-oxoacetohydrazonoyl cyanide], above 300 µM.
On to `COc1ccc(C(=O)/C(C#N)=N/Nc2cc(Cl)cc(Cl)c2)cc1OC` [ZL0631, (E)-N-(3,5-dichlorophenyl)-2-(3,4-dimethoxyphenyl)-2-oxoacetohydrazonoyl cyanide], for which, in assay [1] (setting [5]), the half-maximal inhibitory concentration (IC50) was above 300 µM.
